Laboratory results reported in US10827754B2, “Fungicidal composition comprising a pyridylethylbenzamide derivative and a compound capable of inhibiting the ergosterol biosynthesis” (BAYER INTELLECTUAL PROPERTY GMBH, priority 2004, dated 2020).

Columns and labels:
Type in all cases: in vivo
[1] = system: Puccinia recondita; assay: Example 8: efficacy against Puccinia recondita on wheat plants, formulated compounds; details: 240 h, alone, grading 10 days after contamination
Procedure: (§1) The formulated compounds are diluted with water to obtain the desired active material concentration Wheat plants (Scipion variety) in starter cups, sown on 50/50 peat soil-pozzolana substrate and grown at 12° C., are treated at the 1-leaf stage (10 cm tall) by spraying with the aqueous suspension described above.
(§2) Plants, used as controls, are treated with an aqueous solution not containing the active material.
(§3) After 24 hours, the plants are contaminated by spraying the leaves with an aqueous suspension of Puccinia recondita spores (100,000 spores per ml). The spores are collected from a 10-day-old contaminated wheat and are suspended in water containing 2.5 ml/l of tween 80 10%. The contaminated wheat plants are incubated for 24 hours at 20° C. and at 100% relative humidity, and then for 10 days at 20° C. and at 70% relative humidity. Grading is carried out 10 days after the contamination, in comparison with the control plants.

[2] = system: Botrytis cinerea; assay: Example 16: efficacy against Botrytis cinerea on gherkin plants, formulated compounds; details: alone, grading 5 to 7 days after contamination
Procedure: (§4) The formulated compounds are diluted with water to obtain the desired active material concentration.
(§5) Gherkin plants (Petit vert de Paris variety) in starter cups, sown on a 50/50 peat soil-pozzolana substrate and grown at 18-20° C., are treated at the cotyledon Z11 stage by spraying with the aqueous suspension described above. Plants, used as controls, are treated with an aqueous solution not containing the active material.
(§6) After 24 hours, the plants are contaminated by depositing drops of an aqueous suspension of Botrytis cinerea spores (150,000 spores per ml) on upper surface of the leaves. The spores are collected from a 15-day-old culture and are suspended in a nutrient solution composed of: • 20 g/L of gelatine • 50 g/L of cane sugar • 2 g/L of NH4NO3 • 1 g/L of KH2PO4
(§7) The contaminated gherkin plants are settled for 5/7 days in a climatic room at 15-11° C. (day/night) and at 80% relative humidity. Grading (% of efficacy) is carried out 5 to 7 days after the contamination, in comparison with the control plants.

[3] = system: Mycosphaerella graminicola; assay: Example 1: efficacy against Mycosphaerella graminicola on wheat plants, spray 24 h before contamination; details: Zymoseptoria tritici, alone, grading 21 to 28 days after contamination
Procedure: (§8) The active ingredients tested are prepared by potter homogenisation in a mixture of acetone/tween/water. This suspension is then diluted with water to obtain the desired active material concentration.
(§9) Wheat plants (Scipion variety), sown on a 50/50 peat soil-pozzolana substrate in starter cups and grown at 12° C., are treated at the 1-leaf stage (10 cm tall) by spraying with the aqueous suspension described above. Plants, used as controls, are treated with an aqueous solution not containing the active material.
(§10) After 24 hours, the plants are contaminated by spraying them with an aqueous suspension of Mycosphaerella graminicola spores (500 000 spores per ml). The spores are collected from a 7-day-old culture. The contaminated wheat plants are incubated for 72 hours at 18° C. and at 100% relative humidity, and then for 21 to 28 days at 90% relative humidity.
(§11) Grading (% of efficacy) is carried out 21 to 28 days after the contamination, in comparison with the control plants.

[4] = system: Erysiphe graminis f sp. tritici; assay: Example 2: efficacy against Erysiphe graminis on wheat plants, spray 24 h before contamination; details: Blumeria graminis, alone, grading 7 to 14 days after contamination
Procedure: as §8
Wheat plants (Audace variety) in starter cups, sown on 50/50 peat soil-pozzolana substrate and grown at 12° C., are treated at the 1-leaf stage (10 cm tall) by spraying with the aqueous suspension described above.
as §2
(§12) After 24 hours, the plants are contaminated by dusting them with Erysiphe graminis f sp. tritici spores, the dusting being carried out using diseased plants.
(§13) Grading is carried out 7 to 14 days after the contamination, in comparison with the control plants.

[5] = system: Botrytis cinerea; assay: Example 3: efficacy against Botrytis cinerea on gherkin plants, spray 24 h before contamination; details: alone, grading 5 to 7 days after contamination
Procedure: as §8, §5, §6, §7

[6] = system: Erysiphe graminis f sp. tritici; assay: Example 4: efficacy against Erysiphe graminis on wheat plants, formulated compounds; details: Blumeria graminis, alone, grading 7 to 14 days after contamination
Procedure: as §1, with “formulated (concentrated suspension)” for “formulated”, “(Audace” for “(Scipion”
as §2, §12, §13

[7] = system: Botrytis cinerea; assay: Example 5: efficacy against Botrytis cinerea on gherkin plants; details: alone, grading 5 to 7 days after contamination
Procedure: as §8, §5, §6, §7

[8] = system: Botrytis cinerea; assay: Example 6: efficacy against Botrytis cinerea on gherkin plants; details: alone, grading 5 to 7 days after contamination
Procedure: as §8, §5, §6, §7

[9] = system: Erysiphe graminis f sp. tritici; assay: Example 7: efficacy against Erysiphe graminis on wheat plants, formulated compounds; details: Blumeria graminis, alone, grading 7 to 14 days after contamination
Procedure: as §1, with “concentration.” for “concentration”, “(Audace” for “(Scipion”
as §2
After 24 hours, the plants are contaminated by dusting them with Erysiphe graminis f sp. tritici spores, the dusting being carried out using diseased plants. Grading is carried out 7 to 14 days after the contamination, in comparison with the control plants.

[10] = system: Botrytis cinerea; assay: Example 9: efficacy against Botrytis cinerea on gherkin plants, formulated compounds; details: alone, grading 5 to 7 days after contamination
Procedure: as §4, §5, §6, §7

[11] = system: Puccinia recondita; assay: Example 10: efficacy against Puccinia recondita on wheat plants; details: 240 h, alone, grading 10 days after contamination
Procedure: as §8
Wheat plants (Scipion variety) in starter cups, sown on 50/50 peat soil-pozzolana substrate and grown at 12° C., are treated at the 1-leaf stage (10 cm tall) by spraying with the aqueous suspension described above.
as §2, §3

[12] = system: Sphaerotheca fuliginea; assay: Example 11: efficacy against Sphaerotheca fuliginea on gherkin plants, formulated compounds; details: Podosphaera fuliginea, 504 h, alone, grading 21 days after contamination
Procedure: (§14) The formulated compounds are diluted with water to obtain the desired active material concentration
as §5, with “(Vert petit” for “(Petit vert”, “20° C./23°” for “18-20°”, “2-leaves” for “cotyledon Z11”
After 24 hours, the plants are contaminated by spraying them with an aqueous suspension of Sphaerotheca fuliginea spores (100 000 spores per ml). The spores are collected from a contaminated plants. The contaminated gerkhin plants are incubated at about 20° C./25° C. and at 60/70% relative humidity.
Grading (% of efficacy) is carried out 21 days after the contamination, in comparison with the control plants.

[13] = system: Mycosphaerella graminicola; assay: Example 12: efficacy against Mycosphaerella graminicola on wheat plants, formulated compounds; details: Zymoseptoria tritici
Procedure: as §14, §9, §10, §11

[14] = system: Botrytis cinerea; assay: Example 13: efficacy against Botrytis cinerea on gherkin plants, formulated compounds; details: alone, grading 5 to 7 days after contamination
Procedure: as §4, §5, §6, §7

[15] = system: Erysiphe graminis f sp. tritici; assay: Example 14: efficacy against Erysiphe graminis on wheat plants, formulated compounds; details: Blumeria graminis, alone, grading 7 to 14 days after contamination
Procedure: as §1, with “(Audace” for “(Scipion”
as §2, §12, §13

[16] = system: Botrytis cinerea; assay: Example 15: efficacy against Botrytis cinerea on gherkin plants, formulated compounds; details: read-out: % Efficacy
Procedure: as §4, §5, §6, §7

[17] = system: Erysiphe graminis f sp. tritici; assay: Example 17: efficacy against Erysiphe graminis on wheat plants, formulated compounds; details: Blumeria graminis, alone, grading 7 to 14 days after contamination
Procedure: as §1, with “compounds (Compound 1 and a mix of spiroxamine (300 g/l) and prothioconazole (160 g/l)” for “compounds”, “(Audace” for “(Scipion”
as §2, §12, §13

`Fc1ccc([C@]2(Cn3cncn3)O[C@H]2c2ccccc2Cl)cc1` (racemic) [Epoxiconazole, reference compound] showed an Emax at 15.6 g/ha ([1]; dose 15.6 g/ha) of 25%.
In the case of `CC(C)(C)C(O)C(Oc1ccc(-c2ccccc2)cc1)n1cncn1` (stereo not drawn) [Bitertanol, reference compound], the Emax at 333 ppm ([2]; dose 333 ppm) is reported as 0%.
`O=C(NCCc1ncc(C(F)(F)F)cc1Cl)c1ccccc1C(F)(F)F` [Compound 1, N-{2-[3-chloro-5-(trifluoromethyl)-2-pyridinyl]ethyl}-2-trifluoromethylbenzamide] was tested, and the Emax at 15 g/ha [3] was 25%, the Emax at 31 g/ha [3] was 65% and the Emax at 62.5 g/ha ([4]; dose 62.5 g/ha) was 0%. The Emax at 125 g/ha [4] was 20%, the Emax at 12 ppm ([5]; dose 12 ppm) was 0% and the Emax at 37 ppm [5] was 30%. It also gave an Emax at 111 ppm [5] of 80%, an Emax at 62.5 g/ha ([6]; dose 62.5 g/ha) of 10% and an Emax at 37 ppm ([7]; dose 37 ppm) of 0%. The Emax at 111 ppm [7] was 80%, the Emax at 4 ppm ([8]; dose 4 ppm) was 10% and the Emax at 250 g/ha ([9]; dose 250 g/ha) was 40%. It also gave an Emax at 62.5 g/ha ([1]; dose 62.5 g/ha) of 0%, an Emax at 250 g/ha ([1]; dose 250 g/ha) of 0% and an Emax at 12.3 ppm ([10]; dose 12.3 ppm) of 0%. For the same compound, the Emax at 37 ppm ([10]; dose 37 ppm) was 50%, the Emax at 250 g/ha [11] was 0% and the Emax at 4.1 ppm ([12]; dose 4.1 ppm) was 28%. The Emax at 62.5 g/ha ([13]; dose 62.5 g/ha, alone, wheat, grading 21 to 28 days after contamination) was 77%, the Emax at 31.2 g/ha ([14]; dose 31.2 g/ha) was 20% and the Emax at 62.5 g/ha [14] was 30%. For the same compound, the Emax at 500 g/ha ([15]; dose 500 g/ha) was 44%, the Emax at 37 ppm ([16]; dose 37 ppm, alone, gherkin, grading 5 to 7 days after contamination) was 50% and the Emax at 12.3 ppm ([2]; dose 12.3 ppm) was 5%. The Emax at 125 g/ha [17] was 0%.
Work on `CC(C1CC1)C(O)(Cn1cncn1)c1ccc(Cl)cc1` (stereo not drawn) [Cyproconazole, reference compound] yielded an Emax at 31.2 g/ha ([6]; dose 31.2 g/ha) of 15%.
Work on `CC1COC(Cn2cncn2)(c2ccc(Oc3ccc(Cl)cc3)cc2Cl)O1` (stereo not drawn) [Difenconazole, reference compound] yielded an Emax at 111 ppm [7] of 15% and an Emax at 333 ppm ([7]; dose 333 ppm) of 25%.
Compound `CC1(C(=O)Nc2ccc(O)c(Cl)c2Cl)CCCCC1` [Fenhexamid, reference compound] has an Emax at 37 ppm ([12]; dose 37 ppm) of 35%.
In the case of `CC(Cc1ccc(C(C)(C)C)cc1)CN1C[C@@H](C)O[C@@H](C)C1` (stereo partly drawn) [Fenpropimorph, reference compound], the Emax at 62.5 g/ha [14] is reported as 10% and the Emax at 125 g/ha ([14]; dose 125 g/ha) is reported as 30%.
In the case of `CCCCC(O)(Cn1cncn1)c1ccc(Cl)cc1Cl` (stereo not drawn) [Hexaconazole, reference compound], the Emax at 111 ppm ([8]; dose 111 ppm) is reported as 15%.
Compound `CC1(C)CCC(Cc2ccc(Cl)cc2)C1(O)Cn1cncn1` (stereo not drawn) [Metconazole, reference compound] has an Emax at 31.2 g/ha ([9]; dose 31.2 g/ha) of 50%.
`CCCCC(C#N)(Cn1cncn1)c1ccc(Cl)cc1` (stereo not drawn) [Myclobutanil, reference compound] gave an Emax at 333 ppm ([10]; dose 333 ppm) of 0%.
Work on `CCCN(CCOc1c(Cl)cc(Cl)cc1Cl)C(=O)n1ccnc1` [Prochloraz, reference compound] yielded an Emax at 250 g/ha ([13]; read-out: % Efficacy) of 54%.
In the case of `CCCC1COC(Cn2cncn2)(c2ccc(Cl)cc2Cl)O1` (stereo not drawn) [Propiconazole, reference compound], the Emax at 37 ppm [5] is reported as 30%, the Emax at 111 ppm [5] is reported as 50% and the Emax at 333 ppm ([5]; dose 333 ppm) is reported as 70%.
`OC(Cc1ccccc1Cl)(Cn1nc[nH]c1=S)C1(Cl)CC1` (stereo not drawn) [Prothioconazole, reference compound] showed an Emax at 125 g/ha [4] of 0% and an Emax at 250 g/ha ([4]; dose 250 g/ha) of 60%.
`CCCN(CC)CC1COC2(CCC(C(C)(C)C)CC2)O1` (stereo not drawn) [Spiroxamine, reference compound] gave an Emax at 125 g/ha ([15]; dose 125 g/ha) of 0%.
`CC(C)(C)C(O)(CCc1ccc(Cl)cc1)Cn1cncn1` (stereo not drawn) [Tebuconazole, reference compound] showed an Emax at 15 g/ha [3] of 15% and an Emax at 31 g/ha [3] of 15%.
`CC(C)(C)C(O)C(Oc1ccc(Cl)cc1)n1cncn1` (stereo not drawn) [Triadimenol, reference compound] was tested, and the Emax at 250 g/ha [11] was 50%.
In the case of `O=CNC(N1CCN(C(NC=O)C(Cl)(Cl)Cl)CC1)C(Cl)(Cl)Cl` (stereo not drawn) [Triforine], the Emax at 37 ppm [16] is reported as 0% and the Emax at 111 ppm [16] is reported as 15%.
